From US12741974B2, “Compounds constituting C20-modified salinomycin derivatives, a method for obtaining the same, a composition containing the same, a use of said compounds and a method for obtaining an intermediate product” (FILECLO SP. Z O.O., priority 2020, dated 2021)

How the values were obtained:
B16-F0 (murine melanoma) = experiment: In vitro cytotoxicity test, SRB assay, 72 h incubation with compound; format: cell-based; conditions: for IC50: B16-F0 murine melanoma, SRB, 72 h; for SI B16-F0: selectivity coefficient, BALB/3T3 versus B16-F0
Experimental: (§1) In vitro cytotoxicity tests were performed according to the procedure described below. […] The solvent for further dilutions was a culture medium.
(§2) The experiments were repeated at least 3 times.

Hs294T (human melanoma) = experiment: as above; format: cell-based; conditions: for IC50: Hs294T human melanoma, SRB, 72 h; for SI Hs294T: selectivity coefficient, BALB/3T3 versus Hs294T
Experimental: as §1, §2

[1] = tested on: LoVo (drug-sensitive human colon cancer); experiment: as above; format: cell-based; conditions: for IC50: LoVo drug-sensitive human colon cancer, SRB, 72 h; for SI LoVo: selectivity coefficient, BALB/3T3 versus LoVo
Experimental: as §1, §2

[2] = tested on: LoVo/DX (drug-resistant human colon cancer); experiment: as above; format: cell-based; conditions: for IC50: LoVo/DX drug-resistant human colon cancer, SRB, 72 h; for RI: drug resistance coefficient, LoVo/DX versus LoVo, 4320 min; for SI LoVo/DX: selectivity coefficient, BALB/3T3 versus LoVo/DX
Experimental: as §1, §2

[3] = tested on: MCF-7 (human breast cancer); experiment: as above; format: cell-based; conditions: for IC50: MCF-7 human breast cancer, SRB, 72 h; for SI MCF-7: selectivity coefficient, BALB/3T3 versus MCF-7
Experimental: as §1, §2

[4] = tested on: MV-4-11 (human biphenotypic leukaemia); experiment: In vitro cytotoxicity test, MTT assay, 72 h incubation with compound; format: cell-based; conditions: for IC50: MV-4-11 human biphenotypic leukaemia, MTT, 72 h; for SI MV-4-11: selectivity coefficient, BALB/3T3 versus MV-4-11
Experimental: as §1, §2
After 4 hours of incubation at 37° C., 80 μL of lysis buffer was added to each well.

[5] = In vitro cytotoxicity test on normal cells, SRB assay, 72 h incubation with compound; format: cell-based; conditions: mouse, balb/3t3 cells, normal murine fibroblasts, read-out: IC50 BALB/3T3
Experimental: (§3) Normal murine BALB/3T3 fibroblasts were also used in the tests for determining the selectivity coefficients of the compounds used in the assays.
as §1, §2

[6] = tested on: advanced head, neck, breast and ovarian cancer; conditions: small group of patients with advanced head; cited from earlier work
cancer cells = experiment: In vitro cytotoxicity tests, summary statements over the cancer cell lines; format: cell-based; conditions: in words; for anti-proliferative effect compared to the parent compound: versus salinomycin
Experimental: The following cancer cell lines were used in in vitro studies: • B16-F0 (murine melanoma), • Hs294T (human melanoma), • LoVo (drug-sensitive human colon cancer), • LoVo/DX (drug-resistant human colon cancer), • MCF-7 (human breast cancer), • MV-4-11 (human biphenotypic leukaemia).
as §3
In vitro cytotoxicity tests were performed according to the procedure described below. Stock solutions of the test compounds at 10 mg/mLh were prepared for each experiment ex tempore by dissolving 1 mg of the preparation in 100 μL of dimethylsulfoxide (DMSO). The solvent for further dilutions was a culture medium. Compounds were tested at concentration ranges of 100 to 0.00001 μg/mLh (for the B16-F0 and Hs294T cell lines) and 100 to 0.1 μg/mLh (for the LoVo, LoVo/DX, MCF-7, MV-4-11 and BALB/3T3 cell lines).
An MTT tetrazolium salt reduction assay [as per: Wietrzyk et al., Anti-cancer drugs, 2007, 18, 447-457] was performed for MV-4-11 cells (human biphenotypic leukaemia) to evaluate the metabolic activity of cancer cells. On the other hand, to determine the anti-proliferative activity of all tested compounds against B16-F0 (murine melanoma), Hs294T (human melanoma), LoVo (drug-sensitive human colon cancer), LoVo/DX (drug-resistant human colon cancer), MCF-7 (human breast cancer) and BALB/3T3 (normal mouse fibroblasts) cell lines, the SRB colorimetric assay was used [as per: Skehan et al., Journal of the National Cancer Institute, 1990, 82, 1107-1112] measuring the inhibition of target cell proliferation based on the amount of cellular protein measured. In each experiment, samples containing specific concentrations of the test compound were applied to 96-well plates in triplicate. The experiments were repeated at least 3 times.
When calculating the mean absorbance value for a set of wells (untreated cells, cells treated with a specific compound at a specific concentration, control of medium alone), outliers were rejected using a 10% coefficient of variation CV.

[7] = tested on: BALB/3T3 (normal murine fibroblasts); experiment: In vitro cytotoxicity test on normal cells, SRB assay, 72 h incubation with compound; format: cell-based; conditions: read-out: IC50 BALB/3T3
Experimental: as §3, §1, §2

Compound: CC[C@@H](C(=O)[C@@H](C)[C@@H](O)[C@H](C)[C@@H]1O[C@@H]([C@@H](CC)C(=O)O)CC[C@@H]1C)[C@H]1O[C@]2(C=C[C@@H](O)[C@]3(CC[C@@](C)([C@H]4CC[C@](O)(CC)[C@H](C)O4)O3)O2)[C@H](C)C[C@@H]1C [salinomycin]
- IC50 (B16-F0 (murine melanoma); Mus musculus, B16F0): 630 nM
- SI B16-F0 (B16-F0 (murine melanoma)): 3.3
- IC50 (Hs294T (human melanoma); Hs 294T): 560 nM
- SI Hs294T (Hs294T (human melanoma)): 3.7
- IC50 [1]: 210 nM
- SI LoVo [1]: 9.9
- IC50 [2]: 480 nM
- RI [2]: 2.3
- SI LoVo/DX [2]: 4.3
- IC50 ([3]; MCF7): 2100 nM
- SI MCF-7 [3]: 1.0
- IC50 ([4]; MV4-11): 70 nM
- SI MV-4-11 [4]: 29.7
- CC50 at 72 h [5]: 2080 nM
- effect on cancer progression in patients [6]: inhibition of cancer progression
- side effects in patients [6]: no acute side effects

Compound: CC[C@@H](C(=O)[C@@H](C)[C@@H](O)[C@H](C)[C@@H]1O[C@@H]([C@@H](CC)C(=O)O)CC[C@@H]1C)[C@H]1O[C@]2(C=C[C@@H](NC(=O)C(C)C)[C@]3(CC[C@@](C)([C@H]4CC[C@](O)(CC)[C@H](C)O4)O3)O2)[C@H](C)C[C@@H]1C [(10), C20-dehydroxy-C20-aminosalinomycin N-isobutyramide]
- IC50 (B16-F0 (murine melanoma); Mus musculus, B16F0): 70 nM
- SI B16-F0 (B16-F0 (murine melanoma)): 50.3
- IC50 (Hs294T (human melanoma); Hs 294T): 20 nM
- SI Hs294T (Hs294T (human melanoma)): 176.0
- IC50 [1]: 670 nM
- SI LoVo [1]: 5.3
- IC50 [2]: 190 nM
- RI [2]: 0.3
- SI LoVo/DX [2]: 18.5
- IC50 ([3]; MCF7): 700 nM
- SI MCF-7 [3]: 5.0
- IC50 ([4]; MV4-11): 70 nM
- SI MV-4-11 [4]: 50.3
- CC50 at 72 h [5]: 3520 nM
- anti-proliferative effect compared to the parent compound (cancer cells): several times more potent

Compound: CC[C@@H](C(=O)[C@@H](C)[C@@H](O)[C@H](C)[C@@H]1O[C@@H]([C@@H](CC)C(=O)O)CC[C@@H]1C)[C@H]1O[C@]2(C=C[C@@H](NC(=O)c3ccccc3)[C@]3(CC[C@@](C)([C@H]4CC[C@](O)(CC)[C@H](C)O4)O3)O2)[C@H](C)C[C@@H]1C [(15), C20-dehydroxy-C20-aminosalinomycin N-benzamide]
- IC50 (B16-F0 (murine melanoma); Mus musculus, B16F0): 20 nM
- SI B16-F0 (B16-F0 (murine melanoma)): 81.5
- IC50 (Hs294T (human melanoma); Hs 294T): 20 nM
- SI Hs294T (Hs294T (human melanoma)): 81.5
- IC50 [1]: 280 nM
- SI LoVo [1]: 5.1
- IC50 [2]: 50 nM
- RI [2]: 0.2
- SI LoVo/DX [2]: 32.6
- IC50 ([3]; MCF7): 280 nM
- SI MCF-7 [3]: 5.8
- IC50 ([4]; MV4-11): 60 nM
- SI MV-4-11 [4]: 27.2
- CC50 at 72 h [5]: 1630 nM
- anti-proliferative effect compared to the parent compound (cancer cells): several times more potent

Compound: C#CCOC(=O)N[C@@H]1C=C[C@]2(O[C@H]([C@@H](CC)C(=O)[C@@H](C)[C@@H](O)[C@H](C)[C@@H]3O[C@@H]([C@@H](CC)C(=O)O)CC[C@@H]3C)[C@@H](C)C[C@H]2C)O[C@@]12CC[C@@](C)([C@H]1CC[C@](O)(CC)[C@H](C)O1)O2 [(22), C20-dehydroxy-C20-aminosalinomycin N-propargylcarbamate]
- IC50 (B16-F0 (murine melanoma); Mus musculus, B16F0): 20 nM
- SI B16-F0 (B16-F0 (murine melanoma)): 66.0
- IC50 (Hs294T (human melanoma); Hs 294T): 4.1 nM
- SI Hs294T (Hs294T (human melanoma)): 322.0
- IC50 [1]: 300 nM
- SI LoVo [1]: 4.4
- IC50 [2]: 50 nM
- RI [2]: 0.2
- SI LoVo/DX [2]: 26.4
- IC50 ([3]; MCF7): 340 nM
- SI MCF-7 [3]: 3.9
- IC50 ([4]; MV4-11): 50 nM
- SI MV-4-11 [4]: 26.4
- CC50 at 72 h [5]: 1320 nM
- anti-proliferative effect compared to the parent compound (cancer cells): tens of times more potent

Compound: CC[C@@H](C(=O)[C@@H](C)[C@@H](O)[C@H](C)[C@@H]1O[C@@H]([C@@H](CC)C(=O)O)CC[C@@H]1C)[C@H]1O[C@]2(C=C[C@H](NC(=O)C(C)C)[C@]3(CC[C@@](C)([C@H]4CC[C@](O)(CC)[C@H](C)O4)O3)O2)[C@H](C)C[C@@H]1C [(10 epi), reference compound]
- IC50 (Hs294T (human melanoma)): 4000 nM
- SI Hs294T (Hs294T (human melanoma)): 0.95
- IC50 [4]: 400 nM
- SI MV-4-11 [4]: 9.5
- CC50 [7]: 3800 nM

Compound: CC[C@@H](C(=O)[C@@H](C)[C@@H](O)[C@H](C)[C@@H]1O[C@@H]([C@@H](CC)C(=O)O)CC[C@@H]1C)[C@H]1O[C@]2(C=C[C@H](NC(=O)CCCCl)[C@]3(CC[C@@](C)([C@H]4CC[C@](O)(CC)[C@H](C)O4)O3)O2)[C@H](C)C[C@@H]1C [(12 epi), reference compound]
- IC50 [4]: 2500 nM
- SI MV-4-11 [4]: 2.9
- CC50 [7]: 7300 nM

Compound: CC[C@@H](C(=O)[C@@H](C)[C@@H](O)[C@H](C)[C@@H]1O[C@@H]([C@@H](CC)C(=O)[O-])CC[C@@H]1C)[C@H]1O[C@]2(C=C[C@@H](NC(=O)NCCCCl)[C@]3(CC[C@@](C)([C@H]4CC[C@](O)(CC)[C@H](C)O4)O3)O2)[C@H](C)C[C@@H]1C.[Na+] [(25), 3-chloropropylurea of C20-dehydroxy-C20-aminosalinomycin]
- IC50 (B16-F0 (murine melanoma); Mus musculus, B16F0): 10 nM
- SI B16-F0 (B16-F0 (murine melanoma)): 135.0
- IC50 (Hs294T (human melanoma); Hs 294T): 5.6 nM
- SI Hs294T (Hs294T (human melanoma)): 241.1
- IC50 [1]: 20 nM
- SI LoVo [1]: 67.5
- IC50 [2]: 220 nM
- RI [2]: 11.0
- SI LoVo/DX [2]: 6.1
- IC50 ([3]; MCF7): 180 nM
- SI MCF-7 [3]: 7.5
- IC50 ([4]; MV4-11): 0.3 nM
- SI MV-4-11 [4]: 4500.0
- CC50 at 72 h [5]: 1350 nM
- preferred effect against a type of cancer cells (cancer cells): preferred effect against biphenotypic leukaemia cells
- anti-proliferative effect compared to the parent compound (cancer cells): tens of times more potent

Compound: CC[C@@H](C(=O)[C@@H](C)[C@@H](O)[C@H](C)[C@@H]1O[C@@H]([C@@H](CC)C(=O)O)CC[C@@H]1C)[C@H]1O[C@]2(C=C[C@H](NC(=O)c3ccccc3)[C@]3(CC[C@@](C)([C@H]4CC[C@](O)(CC)[C@H](C)O4)O3)O2)[C@H](C)C[C@@H]1C [(15 epi), reference compound]
- IC50 (B16-F0 (murine melanoma)): 400 nM
- SI B16-F0 (B16-F0 (murine melanoma)): 2.5
- IC50 (Hs294T (human melanoma)): 80 nM
- SI Hs294T (Hs294T (human melanoma)): 12.5
- IC50 [1]: 200 nM
- SI LoVo [1]: 5
- IC50 [2]: 630 nM
- RI [2]: 3
- SI LoVo/DX [2]: 1.6
- IC50 [3]: 1100 nM
- SI MCF-7 [3]: 0.9
- IC50 [4]: 33 nM
- SI MV-4-11 [4]: 30
- CC50 [7]: 1000 nM

Compound: CCOC(=O)N[C@H]1C=C[C@]2(O[C@H]([C@@H](CC)C(=O)[C@@H](C)[C@@H](O)[C@H](C)[C@@H]3O[C@@H]([C@@H](CC)C(=O)O)CC[C@@H]3C)[C@@H](C)C[C@H]2C)O[C@@]12CC[C@@](C)([C@H]1CC[C@](O)(CC)[C@H](C)O1)O2 [(19 epi), reference compound]
- IC50 (B16-F0 (murine melanoma)): 330 nM
- SI B16-F0 (B16-F0 (murine melanoma)): 3
- IC50 (Hs294T (human melanoma)): 60 nM
- SI Hs294T (Hs294T (human melanoma)): 16
- IC50 [1]: 240 nM
- SI LoVo [1]: 4.1
- IC50 [2]: 700 nM
- RI [2]: 3
- SI LoVo/DX [2]: 1.4
- IC50 [3]: 1000 nM
- SI MCF-7 [3]: 1
- IC50 [4]: 46 nM
- SI MV-4-11 [4]: 22
- CC50 [7]: 1000 nM
